Laboratory results reported in patent US20070197540A1, “Pyrazolopyrimidines” (priority 2003, published 2007).
Like-named read-outs stand apart in the source and are kept apart here.

Experiment: logP determination by HPLC (EEC Directive 79/831 Annex V. A8)
Format: physicochemical
Description: logP value is determined in accordance with EEC Directive 79/831 Annex V. A8 by HPLC (gradient method, acetonitrile/0.1% aqueous phosphoric acid)

[1] = HPLC, gradient method, acetonitrile/0.1% aqueous phosphoric acid, read-out: logP

chromatographic logP [1]	Compound	further results
3.89	CC1CCN(c2c(-c3ccc(F)cc3Cl)c(Cl)nc3c(CO)cnn23)CC1 [Example 1, 3-hydroxymethyl-5-chloro-6-(2-chloro-4-fluorophenyl)-7-(4-methylpiperidino)pyrazolo[1,5-a]pyrimidine]	–
5.09	COCc1cnn2c(N3CCC(C)CC3)c(-c3ccc(F)cc3Cl)c(Cl)nc12 [Example 2, 3-methoxymethyl-5-chloro-6-(2-chloro-4-fluorophenyl)-7-(4-methylpiperidno)pyrazolo[1,5-a]pyrimidine]	–
5.7	CCC1COC(c2cnn3c(NC(C)C(C)(C)C)c(-c4ccc(F)cc4Cl)c(Cl)nc23)O1 (stereo not drawn) [Example 23]	–
–	CC1CCN(c2c(-c3ccc(F)cc3Cl)c(Cl)nc3c(C=O)cnn23)CC1 [Example 541, 3-formyl-5-chloro-6-(2-chloro-4-fluorophenyl)-7-(4-methylpiperidino)pyrazolo[1,5-a]pyrimidine]	chromatographic logP (HPLC, gradient of acetonitrile/0.1% aqueous phosphoric acid, pH=2.3, read-out: log P(pH=2.3)): 4.53
–	CC(Nc1c(-c2ccc(F)cc2Cl)c(Cl)nc2c(C=O)cnn12)C(C)(C)C (stereo not drawn) [Example 542, 3-formyl-5-chloro-6-(2-chloro-4-fluorophenyl)-7-(3,3-dimethylbut-2-ylamino)pyrazolo[1,5-a]pyrimidine]	chromatographic logP (HPLC (gradient method), per EEC Directive 79/831 Annex V. A8, two values, one per atropisomer, read-out: log P (atropisomers)): 4.47
–	CC1CCN(c2c(-c3ccc(F)cc3Cl)c(Cl)nc3c(C#N)cnn23)CC1 [Example 543, 3-cyano-5-chloro-6-(2-chloro-4-fluorophenyl)-7-(4-methylpiperidino)pyrazolo[1,5-a]pyrimidine]	chromatographic logP (pH=2.3, read-out: log P(pH=2.3)): 4.88
